The values below come from patent US20110318396A1, “DERMATOLOGICAL/COSMETIC COMPOSITIONS COMPRISING A RETINOID AND BENZOYL PEROXIDE” (Galderma Research & Development, priority 2006, published 2011).

SMILES strings stand for the structures. Read-outs that look alike come from different tables or passages of the source.

A short description of series [1]: Chemical stability: assay of adapalene by internal calibration in HPLC. The format is physicochemical. As to conditions: composition of Example 2 a); AT; T 3 months. An excerpt: Assay of the active by internal calibration in HPLC.
At the starting time (T0) the composition is considered to contain 100% of adapalene. Concentration of adapalene measured in % relative to T0: […]

The conditions of series [2]: in presence of the formulation based on benzoyl peroxide, cited from earlier work; for Retinoid degraded: calculated.
Series [3] can be described thus: Chemical stability: assay of benzoyl peroxide by internal calibration in HPLC. The format is physicochemical. The conditions noted are these: composition of Example 2 a). An excerpt: Benzoyl Peroxide: Assay of the active by internal calibration in HPLC. At the starting time (T0) the composition is considered to contain 100% of benzoyl peroxide. Concentration of benzoyl peroxide measured in % relative to T0: […]

The conditions of series [4]: in PEG 400 and ethanol; cited from earlier work.
The conditions of series [5]: cited from earlier work; for Degradation time: 40° C.

Regarding `COc1ccc(-c2ccc3cc(C(=O)O)ccc3c2)cc1C12CC3CC(CC(C3)C1)C2` [Adapalene, 6-(3-(1-adamantyl)-4-methoxyphenyl)-2-naphthoic acid], in series [1], the “Concentration of adapalene measured in % relative to T0” value was found to be 97.7%. For the same molecule, in series [2] (over 24 hours), the “Degradation of the retinoid” value is listed as “no degradation”.

`O=C(OOC(=O)c1ccccc1)c1ccccc1` [Benzoyl Peroxide, benzoyl peroxide]: the “Concentration of benzoyl peroxide measured in % relative to T0” value stood at 96.3% in series [3] (40° C., T 1 month); 81.6% in series [3] (40° C., T 2 months); 88.7% in series [3] (40° C., T 3 months); 99.2% in series [3] (AT, T 0); 94.8% in series [3] (AT, T 3 months). For the same molecule, the Solubility entry in series [4] is listed as “particularly soluble”. In addition, the Degradation time in series [5] (in solution in PEG 400 (0.5 mg/g)) was 1.4 days; in series [5] (in solution in ethanol) it was 29 days; in series [5] (in solution in propylene glycol), 53 days. In series [5] (in water and propylene glycol, kept for 90 days), the “Degradation in suspension (dispersed form)” value was “not degraded”.

As to `CC1=C(/C=C/C(C)=C/C=C/C(C)=C/C(=O)O)C(C)(C)CCC1` [tretinoin], the Retinoid degraded in series [2] (in 2 hours) is reported as 50%; in series [2] (in 24 hours) it was 95%.
